This note sets out measurements from patent US11078202B2, “β-lactamase inhibitor and use thereof” (priority 2018, dated 2021).

Counter-ions that a name gives are not always drawn.

What all share (assay type): cell-based
Assay [1] concerns Klebsiella pneumoniae XNWB 0003. The experiment in a line: MIC assay of test compounds combined with imipenem (4 μg/mL). Particulars: imipenem 4 μg/mL fixed. In a few lines:
(§1)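 Strains grown on TSA, colonies suspended to OD600 0.1-0.15, diluted 300-fold in CAMHB; compound dilutions combined with fixed ceftazidime or imipenem at concentrations given in assay names. Incubated 16-20 h at 35±2 °C; MIC read per CLSI guidelines, with growth and sterility controls.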

For assay [2], the system named is Klebsiella pneumoniae XNWB 0004. Described as above. The settings on record: imipenem 4 μg/mL fixed. In a few lines:
as §1

The subject of assay [3] is Pseudomonas aeruginosa XNWB 0008. The description is as above. Particulars: imipenem 4 μg/mL fixed. In a few lines:
as §1

Assay [4] relates to Klebsiella pneumoniae XNWB 0005. Described as above. Particulars: imipenem 4 μg/mL fixed. In outline:
as §1

In assay [5] the test system is Klebsiella pneumoniae XNWB 0002. The assay is described as above. Particulars: imipenem 4 μg/mL fixed. In outline: as §1
Assay [6] relates to Klebsiella pneumoniae XNWB 0006. Described as above. Particulars: imipenem 4 μg/mL fixed. In a few lines: as §1
Assay [7] concerns Acinetobacter baumannii XNWB 0007. The assay is described as above. The settings on record: imipenem 4 μg/mL fixed. In outline: as §1
The subject of assay [8] is Klebsiella pneumoniae XNWB 0001. The description is as above. The settings on record: imipenem 4 μg/mL fixed. In outline:
as §1

In assay [9] the test system is Escherichia coli XNWB 0009. The experiment in a line: MIC assay of test compounds combined with ampicillin (8 μg/mL). The settings on record: ampicillin 8 μg/mL fixed. The procedure: (§2) The bacterial strains used for the minimum inhibitory concentration (MIC) test were frozen in a −80° C. ULT freezer and thawed 2 days before use. A small amount of frozen bacterial strains were scraped using a sterile inoculating loop, streaked onto a TSA solid culture dish for inoculation, and then cultured for 20-24 h at 35±2° C. in a normal atmospheric environment.
(§3) 5-10 colonies with similar morphology were picked from the culture dish using a sterile inoculating loop and then re-streaked onto a suitable solid culture dish. Then the dish was placed into a normal incubator for culture for 20-24 h at 35±2° C.
(§4) 5-10 single bacterial colonies were picked from the solid culture dish, resuspended in 500 μL of 0.9% NaCl, and adjusted to an OD600 of 0.1-0.15 with a spectrophotometer.
(§5) The bacteria were then diluted 300-fold with 1.1×CAMHB.
(§6) Test compounds of columns A-H: having a highest final test concentration of 64 μg/mL or 32 μg/mL, 2-fold diluted.
(§7) Dilution of test compounds: All test compounds were dissolved and diluted in dimethylsulfoxide (DMSO). 170 μL of 3.2 mg/mL (50*64 μg/mL) compound was transferred to wells (A1-H1) of column 1 of a dilution master plate and then 85 μL of DMSO was transferred to wells of other columns. Each compound was diluted 2-fold in sequence (i.e., 85 μL of compound was pipetted from column 1 into column 2 and mixed uniformly, 85 μL of compound was pipetted from column 2 into column 3 and mixed uniformly, then 85 μL of compound was pipetted from column 3 into column 4 and mixed uniformly, and so on until the dilution was done in column 11).
(§8) Preparation of an additive of ampicillin: Ampicillin was dissolved in ddH2O. 30 μL of 100 μg/mL (12.5×8 μg/mL) ampicillin was transferred to columns 1-11 of an additive plate, followed by the addition of 30 μL of ddH2O to column 12.
(§9) 2 μL of each compound in the dilution master plate of the test compounds was transferred to the corresponding well of the assay plates. In the mean time, 2 μL of 100% DMSO was transferred to the compound-free wells (GC and SC wells). (1) 8 μL of imipenem in the additive plate of imipenem was transferred to the corresponding wells of the assay plates; (2) 8 μL of ceftazidime in the additive plate of ceftazidime was transferred to the corresponding wells of the assay plates; (3) 8 μL of ampicillin in the additive plate of ampicillin was transferred to the corresponding wells of the assay plates.
(§10) 90 μL of corresponding bacterial inocula were added to wells (except for SC wells) of the assay plates.
(§11) After addition, the 6 assay plates were covered by sterile covers. The mixtures in the assay plates were centrifuged by a centrifuge at 1000 rpm for 30 s, and mixed uniformly by oscillating with a microplate oscillator at 800 rpm for 1 min, and then cultured in a common incubator for 16-20 h at 35±2° C.
(§12) The minimum inhibitory concentration of each compound was recorded by reference to guidelines from the Clinical and Laboratory Standards Institute.
(§13) The minimum inhibitory concentrations of the compounds of the present invention and antibiotics (imipenem, ceftazidime, and ampicillin) against 11 strains of bacteria were tested in this study by reference to the medium microdilution method as indicated by the Clinical and Laboratory Standards Institute. The effect of the test compounds in combination with imipenem, ceftazidime, and ampicillin was also tested. Compounds were diluted two-fold in 96-well plates from the highest detection concentration of 64 μg/mL. The test compounds were tested in combination with a fixed concentration of imipenem (4 μg/mL), ceftazidime (8 μg/mL), and ampicillin (8 μg/mL). The bacterial inocula in the assay plates were resuscitated from TSA and diluted in CAMHB, while growth controls (GC wells) and sterile controls (SC wells) were set up in the assay plates. […]

The subject of assay [10] is Escherichia coli XNWB 0010. The description is as above. The settings on record: ampicillin 8 μg/mL fixed. The procedure:
as §2, §3, §4, §5, §6, §7, §8, §9, §10, §11, §12, §13

Assay [11] has as its system Enterobacter aerogenes XNWB 0011. The assay is described as above. Particulars: ampicillin 8 μg/mL fixed. Here is the method:
as §2, §3, §4, §5, §6, §7, §8, §9, §10, §11, §12, §13

The test system of assay [12] is Klebsiella pneumoniae XNWB 0003. The experiment in a line: MIC assay of test compounds combined with ceftazidime (8 μg/mL). The settings on record: ceftazidime 8 μg/mL fixed. In a few lines: as §1
Assay [13] concerns Klebsiella pneumoniae XNWB 0004. The assay is described as above. The settings on record: ceftazidime 8 μg/mL fixed. In outline:
as §1

In assay [14] the test system is Pseudomonas aeruginosa XNWB 0008. The description is as above. The settings on record: ceftazidime 8 μg/mL fixed. In a few lines: as §1
Assay [15] deals with Klebsiella pneumoniae XNWB 0005. The assay is described as above. Particulars: ceftazidime 8 μg/mL fixed. In outline:
as §1

Assay [16] relates to Klebsiella pneumoniae XNWB 0002. The description is as above. The settings on record: ceftazidime 8 μg/mL fixed. In outline: as §1
Assay [17] deals with Klebsiella pneumoniae XNWB 0006. Described as above. Particulars: ceftazidime 8 μg/mL fixed. In a few lines:
as §1

Assay [18] has as its system Acinetobacter baumannii XNWB 0007. Described as above. Particulars: ceftazidime 8 μg/mL fixed. In a few lines: as §1
In assay [19] the test system is Klebsiella pneumoniae XNWB 0001. The assay is described as above. The settings on record: ceftazidime 8 μg/mL fixed. In a few lines: as §1

Turning to `N=C(N)NCc1nnc([C@@H]2CC3(CC3)[C@@H]3CN2C(=O)N3OS(=O)(=O)O)o1` [Example 3, (1R,4S)-4-(5-(guanidinomethyl)-1,3,4-oxadiazol-2-yl)-6-oxo-5,7-diazaspiro[bicycle [3.2.1]octane-2,1′-cyclopropan]-7-yl sulfate], the “The minimum concentration of test compounds combined with imipenem (4 μg/mL) for bacteriostasis” value in assay [1] is given as “A (A: <8 μg/mL)”; in assay [2] it was “A (A: <8 μg/mL)”; in assay [3] it was “C (C: 16-128 μg/mL)”; in assay [4], “A (A: <8 μg/mL)”; in [5], “A (A: <8 μg/mL)”; in assay [6] it was “A (A: <8 μg/mL)”. The “The minimum concentration of test compounds combined with imipenem (4 μg/mL) for bacteriostasis” value is listed as “C (C: 16-128 μg/mL)” in assay [7] and “B (B: 8-16 μg/mL)” in assay [8]. In addition, the figures for the “The minimum concentration of test compounds combined with ampicillin (8 μg/mL) for bacteriostasis” value in assay [9], in assay [10] and in [11] were “A (A: <8 μg/mL)”, “B (B: 8-16 μg/mL)” and “C (C: 16-128 μg/mL)”, respectively. In addition, the “The minimum concentration of test compounds combined with ceftazidime (8 μg/mL) for bacteriostasis” value in assay [12] is recorded as “B (B: 8-16 μg/mL)”; in assay [13], “B (B: 8-16 μg/mL)”; in [14] it was “C (C: 16-128 μg/mL)”; in assay [15], “B (B: 8-16 μg/mL)”; in [16], “A (A: <8 μg/mL)”; in assay [17], “A (A: <8 μg/mL)”. In addition, the “The minimum concentration of test compounds combined with ceftazidime (8 μg/mL) for bacteriostasis” value in assay [18] was “C (C: 16-128 μg/mL)”; in [19], “B (B: 8-16 μg/mL)”.

Turning to `NCCc1cc([C@@H]2CC3(CC3)[C@@H]3CN2C(=O)N3OS(=O)(=O)O)no1` [Example 41, (1R,4S)-4-(5-(2-aminoethyl)isoxazol-3-yl)-6-oxo-5,7-diazaspiro[bicyclo[3.2.1]octane-2,1′-cyclopropan]-7-yl sulfate], the “The minimum concentration of test compounds combined with imipenem (4 μg/mL) for bacteriostasis” value in [1], in assay [2], in assay [3], in assay [4], in assay [5] and in [6] was “A (A: <8 μg/mL)” in each case. Also, the “The minimum concentration of test compounds combined with imipenem (4 μg/mL) for bacteriostasis” value is “C (C: 16-128 μg/mL)” in assay [7] and “A (A: <8 μg/mL)” in assay [8]. The results for the “The minimum concentration of test compounds combined with ampicillin (8 μg/mL) for bacteriostasis” value in assay [9], in [10] and in assay [11] were “A (A: <8 μg/mL)”, “A (A: <8 μg/mL)” and “B (B: 8-16 μg/mL)”, respectively. Besides, the “The minimum concentration of test compounds combined with ceftazidime (8 μg/mL) for bacteriostasis” value in assay [12] is “A (A: <8 μg/mL)”; in [13], “B (B: 8-16 μg/mL)”; in assay [14] it was “C (C: 16-128 μg/mL)”; in assay [15], “A (A: <8 μg/mL)”; in [16], “A (A: <8 μg/mL)”; in assay [17] it was “A (A: <8 μg/mL)”. The figures for the “The minimum concentration of test compounds combined with ceftazidime (8 μg/mL) for bacteriostasis” value in [18] and in assay [19] were “C (C: 16-128 μg/mL)” and “A (A: <8 μg/mL)”, respectively.

For the compound `NCc1nnc([C@@H]2CC3(CC3)[C@@H]3CN2C(=O)N3OS(=O)(=O)O)o1` [Example 2, (1R,4S)-4-(5-(aminomethyl)-1,3,4-oxadiazol-2-yl)-6-oxo-5,7-diazaspiro[bicycle [3.2.1]octane-2,1′-cyclopropan]-7-yl sulfate], the “The minimum concentration of test compounds combined with imipenem (4 μg/mL) for bacteriostasis” value in assay [1] is on record as “A (A: <8 μg/mL)”; in [2], “A (A: <8 μg/mL)”; in assay [3] it was “C (C: 16-128 μg/mL)”; in [4] it was “A (A: <8 μg/mL)”; in [5] it was “A (A: <8 μg/mL)”; in [6], “A (A: <8 μg/mL)”. Besides, the “The minimum concentration of test compounds combined with imipenem (4 μg/mL) for bacteriostasis” value in [7] is reported as “C (C: 16-128 μg/mL)”; in assay [8], “A (A: <8 μg/mL)”. Besides, the “The minimum concentration of test compounds combined with ampicillin (8 μg/mL) for bacteriostasis” value in assay [9], in [10] and in [11] was “A (A: <8 μg/mL)” throughout. Also, the “The minimum concentration of test compounds combined with ceftazidime (8 μg/mL) for bacteriostasis” value in [12] is on record as “A (A: <8 μg/mL)”; in [13], “B (B: 8-16 μg/mL)”; in assay [14], “C (C: 16-128 μg/mL)”; in assay [15] it was “A (A: <8 μg/mL)”; in [16], “A (A: <8 μg/mL)”; in assay [17], “A (A: <8 μg/mL)”. The “The minimum concentration of test compounds combined with ceftazidime (8 μg/mL) for bacteriostasis” value was “C (C: 16-128 μg/mL)” in assay [18] and “A (A: <8 μg/mL)” in assay [19].
